# US12174172B2, “Method for evaluating the efficacy of a composition in reducing the effects of cancer therapeutics on skin” (Johnson & Johnson Consumer Inc., priority 2019, dated 2024)
# Entries after “also recorded” stand apart in the source; their conditions may differ.
# Assays:
# Format in all cases: cell-based, human
# [1] = test system: filaggrin (FLG); assay: 3D micro-epidermis model (EpiScreen): filaggrin immunostaining;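 note: human primary epidermal keratinocytes differentiated in high calcium into 3D micro-epidermises, compound-treated for three days, imaged by confocal high-content microscopy, filaggrin staining intensity quantified within actin-segmented structures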
# [2] = test system: desmoglein-1 (DSG1); assay: 3D micro-epidermis model (EpiScreen): desmoglein-1 immunostaining
# Description: (§1) To assess the effects of such therapy molecules on the epidermis, keratinocytes were grown in the presence of kinase inhibitors during 3 days with high calcium concentration to induce keratinocyte differentiation and generate a 3D-stratified differentiated epidermis. Drug impact on the epidermis development was assessed via different keratinocyte markers including: • Ki-67, an universally expressed protein among proliferating cells and absent in the quiescent cells; • Filaggrin, a filament-associated protein that binds to keratin fibers and is a marker of terminal differentiation; • Desmoglein-1, a component of desmosomes and differentiation marker expressed in all epidermal layer above the basal layer; and • Involucrin, an early differentiation marker expressed in the spinous and granular layers and a protein precursor of the epidermal cornified envelope.
# (§2) Human epidermal keratinocytes cells (HPEKs) from a juvenile donor (CellnTec, Switzerland) are cultured in flasks in proliferation medium. Keratinocytes are seeded at passage 6 into EpiScreen™ (Abzena, Cambridge, UK) plates containing collagen 1 coated disc micropatterns (CYTOO, Grenoble, France). Four hours later, unattached cells are washed off and a high calcium medium is added to induce keratinocytes differentiation. The day after, keratinocytes are treated with screening compounds, and Trichostatin A is added at 0.3 μM as an internal positive control. After three days of treatment, micro-epidermises are fixed with a formalin solution 10% for 30 minutes, then permeabilized with 0.1% Triton. Several immunostainings are performed: actin (Acti-Stain 555, PHDH1, Cytoskeleton), nuclei (Hoechst, H3570, Invitrogen), and one biomarker of interest per well either anti-involucrin (HPA055211, Sigma), anti-filaggrin (HPA030189, Sigma) or anti-desmoglein-1 (HPA022128, Sigma). Antibodies are added overnight at 4° C. before staining with secondary antibody, anti-rabbit 488 (711-545-152, Jackson) for 2 hours at room temperature.
# (§3) Images of each well are acquired with the Operetta HCS platform (Perkin Elmer, Waltham, MA, USA) using a ×10 objective in confocal mode in eight z-planes from 2 μm to 44 μm in steps of 6 μm in each of the 3 channels: actin, nuclei, and one biomarker of interest. The first step of the image analysis consists in detecting micro-epidermis structures on the first z-plane by segmenting the actin staining. Micro-epidermis structures are validated based on several area and roundness min and max criteria. Then, the area of each biomarker staining is measured inside the valid micro-epidermis masks through each z-plane. For all homogeneous biomarker staining, their intensity through the different planes is measured.
# (§4) The actin network of each micro-epidermis is analyzed in each z-plane in order to determine the average 3D structure edges. The biomarker intensity is measured in each z-plane for each structure, and then averaged with the other results generated in the same well. Based on the data generated in the two previous steps, an average 3D reconstruction image is generated. It consists of a meshwork that delimits the structure edges, and a color scaled volume that corresponds to the biomarkers distribution and expression.
# The effect of 8 oncology molecules, selected from first generation EGFRi and pan-kinase inhibitors which mostly target VEGFR and second and third generation therapies targeting main mutations relating to first generation treatment resistance, were assessed in vitro using a 3D micro-epidermis model. The drug incubation concentrations (3, 10, 30, 100 nM) were selected to reflect the clinically relevant (unbound) drug exposures (Table 2). The drug impact was assessed by analysis of tissue size and keratinocyte proliferation using Ki-67 staining and keratinocyte differentiation using filaggrin, desmoglein-1 and involucrin staining. […]
# [3] = test system: involucrin (IVL); assay: 3D micro-epidermis model (EpiScreen): involucrin immunostaining
# Description: as §1, §2, §3, §4
# The effect of 8 oncology molecules, selected from first generation EGFRi and pan-kinase inhibitors which mostly target VEGFR and second and third generation therapies targeting main mutations relating to first generation treatment resistance, were assessed in vitro using a 3D micro-epidermis model. […] The drug impact was assessed by analysis of tissue size and keratinocyte proliferation using Ki-67 staining and keratinocyte differentiation using filaggrin, desmoglein-1 and involucrin staining.
# Size of the epidermis and the expression of the protein junction desmoglein-1 (DSG1), involucrin (IVL) and filaggrin (FLG) was assessed by immunostaining and compared to untreated control. […]
# [4] = concentration (afatinib 3, 10, 30 nM; pan-kinase inhibitors 100 nM)
structure (smiles),measurement,setting,value
CN(C)C/C=C/C(=O)Nc1cc2c(Nc3ccc(F)c(Cl)c3)ncnc2cc1O[C@H]1CCOC1 [Afatinib],FLG 3 nM,"[1]; 3 nM, supplementary data",4%
same,FLG 30 nM,"[1]; 30 nM, supplementary data",19%
same,activation at 0.01 µM,"[1]; Homo sapiens, 72 h, 10 nM, supplementary data, two runs, read-out: FLG 10 nM",12%
same,FLG expression,[1]; Table 1 summary,Increased
same,filaggrin expression,[1]; concentration (afatinib 10 and 30 nM; pan-kinase inhibitors 100 nM),significantly increased; also recorded: increased in a dose-dependent manner
same,DSG 3 nM,"[2]; 3 nM, supplementary data",38%
same,DSG 30 nM,"[2]; 30 nM, supplementary data",87%
same,activation at 0.01 µM,"[2]; Homo sapiens, 72 h, 10 nM, supplementary data, read-out: DSG 10 nM",67%
same,DSG-1 expression,[2]; Table 1 summary,Increased
same,desmoglein-1 expression,[2]; [4],significantly increased; also recorded: increased in a dose-dependent manner
same,IVL 30 nM,"[3]; 30 nM, supplementary data",12%
same,activation at 0.1 µM,"[3]; Homo sapiens, 72 h, 100 nM, supplementary data, two runs, Tox = toxic",16%
same,activation at 1 µM,"[3]; Homo sapiens, 72 h, 1 μM, supplementary data, two runs, Tox = toxic",27%
same,IVL expression,[3]; Table 1 summary,Increased
same,involucrin expression,[3]; [4],significantly increased; also recorded: increased in a dose-dependent manner
